{"source": "the supplement of paper PMC13207355", "conditions_in_all_cases": "exposure time: 72 h", "key": {"E13 [1]": {"tested_on": "E13 (patient-derived glioblastoma stem cells of classical subtype)", "experiment": "surviving fraction (nuclei count normalised to DMSO); higher = more cells surviving (less toxic)"}, "E21 [2]": {"tested_on": "E21 (patient-derived glioblastoma stem cells of mesenchymal subtype)", "experiment": "surviving fraction (nuclei count normalised to DMSO); higher = more cells surviving (less toxic)"}, "E28 [3]": {"tested_on": "E28 (patient-derived glioblastoma stem cells of classical subtype)", "experiment": "surviving fraction (nuclei count normalised to DMSO); higher = more cells surviving (less toxic)"}, "E31 [4]": {"tested_on": "E31 (patient-derived glioblastoma stem cells of proneural subtype)", "experiment": "surviving fraction (nuclei count normalised to DMSO); higher = more cells surviving (less toxic)"}, "E34 [5]": {"tested_on": "E34 (patient-derived glioblastoma stem cells of proneural subtype)", "experiment": "surviving fraction (nuclei count normalised to DMSO); higher = more cells surviving (less toxic)"}, "E57 [6]": {"tested_on": "E57 (patient-derived glioblastoma stem cells of mesenchymal subtype)", "experiment": "surviving fraction (nuclei count normalised to DMSO); higher = more cells surviving (less toxic)"}, "FT3469 [7]": {"tested_on": "FT3469 (normal neural stem cell line)", "experiment": "surviving fraction (nuclei count normalised to DMSO); higher = more cells surviving (less toxic)"}, "E13 [8]": {"tested_on": "E13", "experiment": "phenotypic distance (Euclidean, principal components) from DMSO controls (arbitrary units); higher = stronger morphological change"}, "E21 [9]": {"tested_on": "E21", "experiment": "phenotypic distance (Euclidean, principal components) from DMSO controls (arbitrary units); higher = stronger morphological change"}, "E28 [10]": {"tested_on": "E28", "experiment": "phenotypic distance (Euclidean, principal components) from DMSO controls (arbitrary units); higher = stronger morphological change"}, "E31 [11]": {"tested_on": "E31", "experiment": "phenotypic distance (Euclidean, principal components) from DMSO controls (arbitrary units); higher = stronger morphological change"}, "E34 [12]": {"tested_on": "E34", "experiment": "phenotypic distance (Euclidean, principal components) from DMSO controls (arbitrary units); higher = stronger morphological change"}, "E57 [13]": {"tested_on": "E57", "experiment": "phenotypic distance (Euclidean, principal components) from DMSO controls (arbitrary units); higher = stronger morphological change"}, "FT3469 [14]": {"tested_on": "FT3469", "experiment": "phenotypic distance (Euclidean, principal components) from DMSO controls (arbitrary units); higher = stronger morphological change"}}, "data": [{"smiles": "CCN(CC)Cc1ccc(C(=O)N(CCc2ccccc2OC)[C@@H]2CCNC2)cc1", "values": [{"measurement": "surviving fraction", "setting": "E13 [1]; 4.1 nM", "value": 1.08}, {"measurement": "surviving fraction", "setting": "E13 [1]; 12.3 nM", "value": 0.868}, {"measurement": "surviving fraction", "setting": "E13 [1]; 37 nM", "value": 0.939}, {"measurement": "surviving fraction", "setting": "E13 [1]; 111.1 nM", "value": 0.916}, {"measurement": "surviving fraction", "setting": "E13 [1]; 333.3 nM", "value": 0.929}, {"measurement": "surviving fraction", "setting": "E13 [1]; 1000 nM", "value": 0.865}, {"measurement": "surviving fraction", "setting": "E13 [1]; 3000 nM", "value": 0.251}, {"measurement": "surviving fraction", "setting": "E21 [2]; 4.1 nM", "value": 0.952}, {"measurement": "surviving fraction", "setting": "E21 [2]; 12.3 nM", "value": 0.993}, {"measurement": "surviving fraction", "setting": "E21 [2]; 37 nM", "value": 1}, {"measurement": "surviving fraction", "setting": "E21 [2]; 111.1 nM", "value": 0.952}, {"measurement": "surviving fraction", "setting": "E21 [2]; 333.3 nM", "value": 0.919}, {"measurement": "surviving fraction", "setting": "E21 [2]; 1000 nM", "value": 0.996}, {"measurement": "surviving fraction", "setting": "E21 [2]; 3000 nM", "value": 0.663}, {"measurement": "surviving fraction", "setting": "E28 [3]; 4.1 nM", "value": 0.904}, {"measurement": "surviving fraction", "setting": "E28 [3]; 12.3 nM", "value": 1.11}, {"measurement": "surviving fraction", "setting": "E28 [3]; 37 nM", "value": 1.04}, {"measurement": "surviving fraction", "setting": "E28 [3]; 111.1 nM", "value": 1.12}, {"measurement": "surviving fraction", "setting": "E28 [3]; 333.3 nM", "value": 1.03}, {"measurement": "surviving fraction", "setting": "E28 [3]; 1000 nM", "value": 1.13}, {"measurement": "surviving fraction", "setting": "E28 [3]; 3000 nM", "value": 0.601}, {"measurement": "surviving fraction", "setting": "E31 [4]; 4.1 nM", "value": 1.06}, {"measurement": "surviving fraction", "setting": "E31 [4]; 12.3 nM", "value": 1.02}, {"measurement": "surviving fraction", "setting": "E31 [4]; 37 nM", "value": 1.01}, {"measurement": "surviving fraction", "setting": "E31 [4]; 111.1 nM", "value": 1.19}, {"measurement": "surviving fraction", "setting": "E31 [4]; 333.3 nM", "value": 0.914}, {"measurement": "surviving fraction", "setting": "E31 [4]; 1000 nM", "value": 1.11}, {"measurement": "surviving fraction", "setting": "E31 [4]; 3000 nM", "value": 0.62}, {"measurement": "surviving fraction", "setting": "E34 [5]; 4.1 nM", "value": 0.806}, {"measurement": "surviving fraction", "setting": "E34 [5]; 12.3 nM", "value": 1}, {"measurement": "surviving fraction", "setting": "E34 [5]; 37 nM", "value": 0.941}, {"measurement": "surviving fraction", "setting": "E34 [5]; 111.1 nM", "value": 1.12}, {"measurement": "surviving fraction", "setting": "E34 [5]; 333.3 nM", "value": 1.05}, {"measurement": "surviving fraction", "setting": "E34 [5]; 1000 nM", "value": 0.786}, {"measurement": "surviving fraction", "setting": "E34 [5]; 3000 nM", "value": 0.859}, {"measurement": "surviving fraction", "setting": "E57 [6]; 4.1 nM", "value": 1.16}, {"measurement": "surviving fraction", "setting": "E57 [6]; 12.3 nM", "value": 1.03}, {"measurement": "surviving fraction", "setting": "E57 [6]; 37 nM", "value": 1.08}, {"measurement": "surviving fraction", "setting": "E57 [6]; 111.1 nM", "value": 1.03}, {"measurement": "surviving fraction", "setting": "E57 [6]; 333.3 nM", "value": 1.06}, {"measurement": "surviving fraction", "setting": "E57 [6]; 1000 nM", "value": 1.05}, {"measurement": "surviving fraction", "setting": "E57 [6]; 3000 nM", "value": 0.433}, {"measurement": "surviving fraction", "setting": "FT3469 [7]; 4.1 nM", "value": 0.944}, {"measurement": "surviving fraction", "setting": "FT3469 [7]; 12.3 nM", "value": 1.04}, {"measurement": "surviving fraction", "setting": "FT3469 [7]; 37 nM", "value": 0.955}, {"measurement": "surviving fraction", "setting": "FT3469 [7]; 111.1 nM", "value": 1.11}, {"measurement": "surviving fraction", "setting": "FT3469 [7]; 333.3 nM", "value": 1.21}, {"measurement": "surviving fraction", "setting": "FT3469 [7]; 1000 nM", "value": 1.35}, {"measurement": "surviving fraction", "setting": "FT3469 [7]; 3000 nM", "value": 1.18}, {"measurement": "phenotypic distance", "setting": "E13 [8]; 4.1 nM", "value": 0.886}, {"measurement": "phenotypic distance", "setting": "E13 [8]; 12.3 nM", "value": 0.664}, {"measurement": "phenotypic distance", "setting": "E13 [8]; 37 nM", "value": 0.732}, {"measurement": "phenotypic distance", "setting": "E13 [8]; 111.1 nM", "value": 0.746}, {"measurement": "phenotypic distance", "setting": "E13 [8]; 333.3 nM", "value": 0.975}, {"measurement": "phenotypic distance", "setting": "E13 [8]; 1000 nM", "value": 0.586}, {"measurement": "phenotypic distance", "setting": "E13 [8]; 3000 nM", "value": 6.33}, {"measurement": "phenotypic distance", "setting": "E21 [9]; 4.1 nM", "value": 0.354}, {"measurement": "phenotypic distance", "setting": "E21 [9]; 12.3 nM", "value": 0.793}, {"measurement": "phenotypic distance", "setting": "E21 [9]; 37 nM", "value": 0.496}, {"measurement": "phenotypic distance", "setting": "E21 [9]; 111.1 nM", "value": 0.901}, {"measurement": "phenotypic distance", "setting": "E21 [9]; 333.3 nM", "value": 4.65}, {"measurement": "phenotypic distance", "setting": "E21 [9]; 1000 nM", "value": 0.624}, {"measurement": "phenotypic distance", "setting": "E21 [9]; 3000 nM", "value": 4.48}, {"measurement": "phenotypic distance", "setting": "E28 [10]; 4.1 nM", "value": 0.583}, {"measurement": "phenotypic distance", "setting": "E28 [10]; 12.3 nM", "value": 0.51}, {"measurement": "phenotypic distance", "setting": "E28 [10]; 37 nM", "value": 0.826}, {"measurement": "phenotypic distance", "setting": "E28 [10]; 111.1 nM", "value": 0.771}, {"measurement": "phenotypic distance", "setting": "E28 [10]; 333.3 nM", "value": 0.874}, {"measurement": "phenotypic distance", "setting": "E28 [10]; 1000 nM", "value": 0.721}, {"measurement": "phenotypic distance", "setting": "E28 [10]; 3000 nM", "value": 4.84}, {"measurement": "phenotypic distance", "setting": "E31 [11]; 4.1 nM", "value": 0.43}, {"measurement": "phenotypic distance", "setting": "E31 [11]; 12.3 nM", "value": 0.532}, {"measurement": "phenotypic distance", "setting": "E31 [11]; 37 nM", "value": 0.762}, {"measurement": "phenotypic distance", "setting": "E31 [11]; 111.1 nM", "value": 0.583}, {"measurement": "phenotypic distance", "setting": "E31 [11]; 333.3 nM", "value": 0.607}, {"measurement": "phenotypic distance", "setting": "E31 [11]; 1000 nM", "value": 1.18}, {"measurement": "phenotypic distance", "setting": "E31 [11]; 3000 nM", "value": 5.34}, {"measurement": "phenotypic distance", "setting": "E34 [12]; 4.1 nM", "value": 0.768}, {"measurement": "phenotypic distance", "setting": "E34 [12]; 12.3 nM", "value": 0.429}, {"measurement": "phenotypic distance", "setting": "E34 [12]; 37 nM", "value": 0.97}, {"measurement": "phenotypic distance", "setting": "E34 [12]; 111.1 nM", "value": 1.09}, {"measurement": "phenotypic distance", "setting": "E34 [12]; 333.3 nM", "value": 1.04}, {"measurement": "phenotypic distance", "setting": "E34 [12]; 1000 nM", "value": 0.887}, {"measurement": "phenotypic distance", "setting": "E34 [12]; 3000 nM", "value": 1.55}, {"measurement": "phenotypic distance", "setting": "E57 [13]; 4.1 nM", "value": 0.619}, {"measurement": "phenotypic distance", "setting": "E57 [13]; 12.3 nM", "value": 0.993}, {"measurement": "phenotypic distance", "setting": "E57 [13]; 37 nM", "value": 0.517}, {"measurement": "phenotypic distance", "setting": "E57 [13]; 111.1 nM", "value": 0.737}, {"measurement": "phenotypic distance", "setting": "E57 [13]; 333.3 nM", "value": 0.532}, {"measurement": "phenotypic distance", "setting": "E57 [13]; 1000 nM", "value": 0.717}, {"measurement": "phenotypic distance", "setting": "E57 [13]; 3000 nM", "value": 7.97}, {"measurement": "phenotypic distance", "setting": "FT3469 [14]; 4.1 nM", "value": 0.348}, {"measurement": "phenotypic distance", "setting": "FT3469 [14]; 12.3 nM", "value": 0.837}, {"measurement": "phenotypic distance", "setting": "FT3469 [14]; 37 nM", "value": 0.511}, {"measurement": "phenotypic distance", "setting": "FT3469 [14]; 111.1 nM", "value": 0.773}, {"measurement": "phenotypic distance", "setting": "FT3469 [14]; 333.3 nM", "value": 0.915}, {"measurement": "phenotypic distance", "setting": "FT3469 [14]; 1000 nM", "value": 1.23}, {"measurement": "phenotypic distance", "setting": "FT3469 [14]; 3000 nM", "value": 2.24}]}]}
